Assay results reported in ChEMBL document CHEMBL1157539, “Thousands of chemical starting points for antimalarial lead identification” (Nature, 2010).

Test system: Plasmodium falciparum
Assay: GSK_TCMDC: Inhibition of Plasmodium falciparum 3D7 in whole erythrocytes, using parasite LDH activity as an index of growth.
Format: functional, organism-based

Cc1c(S(=O)(=O)Nc2ccc3nccc(N4CCN[C@H](C)C4)c3c2)sc2ccc(Cl)cc12
XC50 (Plasmodium falciparum, 3D7): 842 nM

CN1CCN(c2ccc3[nH]c(-c4ccc5[nH]c(-c6ccc(O)cc6)nc5c4)nc3c2)CC1
XC50 (Plasmodium falciparum, 3D7): 121 nM

Cc1nc(N/C=C/c2ccc(O)cc2)cc(N2CCCC2)n1
XC50 (Plasmodium falciparum, 3D7): 1070 nM

CCC(Cc1ccccc1)c1cc(O)c(Cc2ccc(-c3ccccc3)cc2)c(=O)o1 (centres undefined)
XC50 (Plasmodium falciparum, 3D7): 971 nM

CC(Cc1ccc(C(=O)OC(c2ccccc2)c2ccccc2)cc1)NCC(O)c1ccccc1 (centres undefined)
XC50 (Plasmodium falciparum, 3D7): 178 nM

O=C(C=Cc1ccc(Cl)c(Cl)c1)NCCCCCN1CCCC(CCCNS(=O)(=O)c2cccc3cccnc23)C1 (centres undefined)
XC50 (Plasmodium falciparum, 3D7): 1000 nM

O=C(NC(=O)c1ccccc1O)c1ccccc1O
XC50 (Plasmodium falciparum, 3D7): 704 nM

O=C(Nc1cccc(-c2nn3ccccc3c2-c2ccnc(Nc3ccc(Cc4ccncc4)cc3)n2)c1)c1c(F)cccc1F
XC50 (Plasmodium falciparum, 3D7): 296 nM

O=C(/C=C/c1ccc(Cl)c(Cl)c1)NCCCCN1CCC(c2c[nH]c3ccccc23)CC1
XC50 (Plasmodium falciparum, 3D7): 859 nM

C=CC(=O)Nc1ccc(Cl)cc1C(O)c1ccccc1 (centres undefined)
XC50 (Plasmodium falciparum, 3D7): 182 nM

COc1c(C2CCN(CCCCNC(=O)c3ccc(NC(=O)c4ccc(C#N)cc4)cc3)CC2)ccc2c1CCCC2
XC50 (Plasmodium falciparum, 3D7): 292 nM

COc1cccc(Nc2nc(C)cc(NCc3ccc(-n4ccnc4)cc3)n2)c1
XC50 (Plasmodium falciparum, 3D7): 958 nM

COc1cc2c(cc1OC)CN(CCCCc1ccc(NC(=O)c3cc(Cl)cc(Cl)c3)cc1)CC2
XC50 (Plasmodium falciparum, 3D7): 1200 nM

CCn1c(-c2nonc2N)nc2c(-c3cccc(NC(=O)Nc4ccc(Cl)cc4)c3)ncc(OCCCN)c21
XC50 (Plasmodium falciparum, 3D7): 828 nM

N#Cc1ccc2c(c1)CN(CC[C@H]1CC[C@H](NC(=O)/C=C/c3c[nH]c4ccccc34)CC1)CC2
XC50: 897 nM
XC50 (Plasmodium falciparum, 3D7): 986 nM

Cc1c(OC(C)C)nc2ccccc2c1C(=O)N[C@H](c1cccc(F)c1)C1CC1
XC50 (Plasmodium falciparum, 3D7): 1090 nM

CCN(CC)CCN(Cc1ccc(-c2ccc(C(F)(F)F)cc2)cc1)C(=O)Cn1c(CCc2c(F)ccc(F)c2F)nc(=O)c2ccccc21
XC50 (Plasmodium falciparum, 3D7): 238 nM

O=C(NC1CCN(Cc2ccccc2)CC1)c1ccc(-c2nc3cc4ccccc4cc3[nH]2)s1
XC50 (Plasmodium falciparum, 3D7): 601 nM

COc1ccc2ccccc2c1CCCCN1CCN(CC(c2ccc(F)cc2)N2CCN(C(C)C)CC2)CC1 (centres undefined)
XC50 (Plasmodium falciparum, 3D7): 809 nM

N#Cc1cccc(NC(=O)Nc2cccc(-c3cccc(-c4nc5cc(F)ccc5[nH]4)c3)c2)c1
XC50 (Plasmodium falciparum, 3D7): 225 nM

COc1cc2nc(NCCc3ccccc3)nc(NCc3cc(C)no3)c2cc1OC
XC50 (Plasmodium falciparum, 3D7): 239 nM

Oc1ccc(CCCNc2nc(NCc3cccc4ccccc34)nc(N3CCCNCC3)n2)cc1
XC50 (Plasmodium falciparum, 3D7): 987 nM

O=C(c1ccc(-c2ccc(-c3nc4cc(C(F)(F)F)ccc4[nH]3)s2)cc1)N1CCCCC1CN1CCC(O)C1 (centres undefined)
XC50 (Plasmodium falciparum, 3D7): 560 nM

COc1ccc(C2CCN(CCCNC(=O)c3ccc(NC(=O)c4ccc(Cl)cc4)cc3)CC2)c(OC)c1
XC50 (Plasmodium falciparum, 3D7): 763 nM

N#Cc1ccc(C=NNc2nc3ccccc3[nH]2)cc1
XC50 (Plasmodium falciparum, 3D7): 1000 nM

N=C(NCCc1ccccc1Cl)c1ccc2ccccc2c1
XC50 (Plasmodium falciparum, 3D7): 1630 nM

O=c1cc(NCCCNCc2cc3c(Cl)cc(Cl)cc3[nH]2)[nH]c2ccccc12
XC50 (Plasmodium falciparum, 3D7): 862 nM

COc1cc(Cc2cnc(N)nc2N)cc(OCCCCc2ccc([N+](=O)[O-])cc2)c1OC
XC50 (Plasmodium falciparum, 3D7): 989 nM

COc1ccccc1CCCN1C(=O)C(c2ccccc2)(c2ccccc2)N=C1N
XC50 (Plasmodium falciparum, 3D7): 265 nM

CCNc1cc(C(=O)N[C@@H](Cc2ccccc2)[C@H](O)CNC2CCC(F)(F)CC2)c(F)c(N2CCCCS2(=O)=O)c1
XC50 (Plasmodium falciparum, 3D7): 212 nM

Cc1cc(NC(=O)[C@H](CC(C)C)Nc2ccc(C#N)c3ccccc23)ccc1F
XC50 (Plasmodium falciparum, 3D7): 777 nM

O=C(/C=C/c1ccc(Cl)c(Cl)c1)NCCCCCN1CCCN(C(=O)Nc2cc(Cl)cc(Cl)c2)CC1
XC50 (Plasmodium falciparum, 3D7): 791 nM

Cc1nnsc1C(=O)Nc1cccc(-c2cccc(-c3nc4cc(F)ccc4[nH]3)c2)c1
XC50 (Plasmodium falciparum, 3D7): 218 nM

C=CCN1CCC(N(Cc2cccc(Oc3ccccc3)c2)C(=O)C(c2ccccc2)c2ccccc2)CC1
XC50 (Plasmodium falciparum, 3D7): 1140 nM

O=C(Nc1ccccc1)N(Cc1ccc(-c2cccc(CNCc3ccc4c(c3)OCO4)c2)cc1)C1CCN(Cc2ccccc2)CC1
XC50 (Plasmodium falciparum, 3D7): 284 nM

CC(Cc1ccc(OCCN2CCN(c3ccc(Cl)cc3)CC2)cc1)NCC(O)c1cccc(C(F)(F)F)c1 (centres undefined)
XC50 (Plasmodium falciparum, 3D7): 807 nM

CCCc1ccc2c(c1O)CCC(N(CCC)CCC)C2 (centres undefined)
XC50 (Plasmodium falciparum, 3D7): 886 nM

Cc1ccc2cc(NC(=O)CCCCCCCON3C(N)=NC(N)=NC34CCCCC4)ccc2n1
XC50 (Plasmodium falciparum, 3D7): 92.5 nM

CCc1ccc(CN2CCC(CN(c3ccc(N4CCOCC4)c(F)c3)S(=O)(=O)c3ccc(C(C)(C)CC)cc3)CC2)cc1
XC50 (Plasmodium falciparum, 3D7): 706 nM

O=C(/C=C/c1ccc(Cl)c(Cl)c1)N1CCC(CN2C3CCC2CC(c2c[nH]c4ccccc24)C3)CC1 (centres undefined)
XC50 (Plasmodium falciparum, 3D7): 737 nM

CN1CCC(N2CCN(Cc3ccc(-c4cccc(-c5nc6ccccc6[nH]5)c4)cc3)CC2)CC1
XC50 (Plasmodium falciparum, 3D7): 145 nM

O=C(NC1CC1)c1cnc(N2CCN(Cc3ccc(Cl)cc3)CC2)c(Cl)c1
XC50 (Plasmodium falciparum, 3D7): 847 nM

Cc1ccc(C2CCN(CCCCNC(=O)c3ccc(-c4ccc(C#N)cc4)cc3)CC2)c(O)c1
XC50 (Plasmodium falciparum, 3D7): 292 nM

O=C(Nc1ccc(Oc2ccccc2)cc1)N(CCN1CCCC1)Cc1ccc(-c2ccc(CN3CCNCC3)cc2)cc1
XC50 (Plasmodium falciparum, 3D7): 892 nM

COc1cc2nc(N3CCC(CNC(=O)c4ccc(-c5ccccc5)cc4)CC3)nc(N)c2cc1OC
XC50 (Plasmodium falciparum, 3D7): 574 nM

CC(C)CNCc1ccc(-c2cccc(-c3nc4ccccc4[nH]3)c2)cc1
XC50 (Plasmodium falciparum, 3D7): 626 nM

CN(C)CCn1cc(C(=O)c2cc(Cl)ccc2O)cc1-c1nc2ccccc2c(=O)[nH]1
XC50 (Plasmodium falciparum, 3D7): 634 nM

Cc1nnc2c(NC(=O)NC3CCCC3)cc3cc(-c4ccc(CN(C)C)cc4)ccc3n12
XC50 (Plasmodium falciparum, 3D7): 1470 nM
